Test [1] deals with IL-17A secretion in activated PBMCs. The test is described as follows: IL-17A secretion in activated PBMCs. The test is classed as cell-based, human. As to conditions: human PBMCs stimulated with CD3/CD28 Dynabeads for 48 h, absolute IC50. On the procedure: Heparin-treated whole blood from healthy human volunteers was supplied from Hospital de Sant Pau (Barcelona) under the approval of the local ethical review board for human studies (Hospital de Sant Pau, Barcelona, Spain). Human peripheral blood mononuclear cells (PBMCs) were isolated from healthy human volunteers by density gradient centrifugation using the Ficoll-Paque (GE Healthcare). […] Cells were seeded in 384-well plate (DiscoverX), at 40,000 cells per well and cultured 2 h at 37° C. and 5% CO2.
Dose-response curves with compounds were prepared using a 5-fold serial dilution (10 concentrations) in 100% DMSO and further diluted 100-fold in culture medium. Compound solutions (5 μL) were added to the plate containing cells (final DMSO concentration of 0.1%) and incubated for 30 min. Then, cells were stimulated with CD3/CD28 Dynabeads (ThermoFisher, at a bead-to-cell ratio of 1:1) for 48 h at 37° C. and 5% CO2.
IL-17A levels in supernatant were determined by immunoassay using hIL17A QBeads (Intellicyt) and by fluorescence analysis in iQue flow cytometer following the manufacturer's instructions. Inhibition of IL-17A secretion was calculated using the following formula: inhibition=100*[1−[(x−mean basal condition)/(mean top condition−mean basal condition)]]. Activated DMSO-treated cells were used as top condition and activated GNE09461 (10 μM)-treated cells as basal condition.

Test [2] has as its target T1, RORγ ligand-binding domain fused to Gal4 (Homo sapiens, UniProt P51449).
T1 construct: Gal4 (galactose-responsive transcription factor); expressed in transfected cells; host or cells: HEK293
T1 sequence (P51449 269-508 limits assumed): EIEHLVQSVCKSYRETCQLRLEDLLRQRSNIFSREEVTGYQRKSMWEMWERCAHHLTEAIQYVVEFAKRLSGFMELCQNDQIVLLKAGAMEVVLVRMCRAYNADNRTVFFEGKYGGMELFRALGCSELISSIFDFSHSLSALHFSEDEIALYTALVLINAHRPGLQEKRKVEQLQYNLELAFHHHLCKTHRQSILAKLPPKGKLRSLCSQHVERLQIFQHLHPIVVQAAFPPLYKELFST
The test is described as follows: RORγ Reporter Assay (Gal4). It counts as cell-based. In outline:
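Percent inhibition was derived from luciferase RLU versus vehicle mean after 24 h compound incubation (37 °C, 0.1% DMSO). The cells were HEK293, transiently co-expressing a Gal4–RORγ ligand-binding-domain fusion plus a UAS-driven luciferase gene.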
In general terms: Reporter assays use an easily measured gene product as a stand-in for the process of interest.

Where [3] appears, read: HEK293 cells co-transfected with RORγ LBD-Gal4 and luciferase reporter, 24 h incubation, absolute EC50, read-out: EC50.
The mark [4] stands for this setting: compounds of the present disclosure, value from Table 2 herein, read-out: Gal4 assay EC50.

Each structure is given as a SMILES string. Read-outs that look alike come from different tables or passages of the source.

In the case of `NC(=O)CN1CCC(CO)(CNc2ncnc(N(Cc3ccc(C(F)(F)F)nc3)C3CC3)c2F)CC1` [Example A7-45, 2-(4-(((6-(cyclopropyl((6-(trifluoromethyl)pyridin-3-yl)methyl)amino)-5-fluoropyrimidin-4-yl)amino)methyl)-4-(hydroxymethyl)piperidin-1-yl)acetamide], inhibition in test [1] (Homo sapiens, PBMC, 48 h) was half-maximal at 0.08 µM (IC50). In addition, the EC50 – broadly, the midpoint of the concentration-response curve – in test [2] (setting [3]) is 0.046 µM; in test [2] (setting [4]), less than 0.1 µM.
For `NC(=O)CN1CC[C@@H](CNc2ncnc(N(Cc3ccc(C(F)(F)F)nc3)C3CC3)c2F)[C@H](O)C1` (single isomer, unassigned) [Example A7-28-1], in test [1] (Homo sapiens, PBMC, 48 h), 0.062 µM corresponded to half-maximal inhibition (IC50). Besides, the EC50 in test [2] (setting [3]) is 0.042 µM.
The like results for `NC(=O)CN1CC[C@@H](CNc2ncnc(N(Cc3ccc(C(F)(F)F)cn3)C3CC3)c2F)[C@H](O)C1` (racemic) [Example A7-14, rac-2-((3R,4R)-4-(((6-(cyclopropyl((5-(trifluoromethyl)pyridin-2-yl)methyl)amino)-5-fluoropyrimidin-4-yl)amino)methyl)-3-hydroxypiperidin-1-yl)acetamide] were, in that order, 0.028 µM and 0.015 µM.
The like results for `[2H]C([2H])(C(N)=O)N1CC[C@@H](CNc2ncnc(N(Cc3ccc(C(F)(F)F)cc3)C3CC3)c2F)[C@H](O)C1` (relative stereo) [Example A7-69, rel-2-((3R,4R)-4-(((6-(cyclopropyl(4-(trifluoromethyl)benzyl)amino)-5-fluoropyrimidin-4-yl)amino)methyl)-3-hydroxypiperidin-1-yl)acetamide-2,2-d2] were, in that order, 0.0031 µM and 0.0027 µM.
Consider `CCN(Cc1ccc(C(F)(F)F)cc1)c1ncnc(NC[C@H]2CCN(CC(N)=O)C[C@@H]2O)c1F` (racemic) [Example A7-21, rac-2-((3R,4R)-4-(((6-(ethyl(4-(trifluoromethyl)benzyl)amino)-5-fluoropyrimidin-4-yl)amino)methyl)-3-hydroxypiperidin-1-yl)acetamide], for which, in test [1] (Homo sapiens, PBMC, 48 h), the IC50 (as a rule, the point on the concentration scale where inhibition reaches its midpoint) amounted to 0.08 µM. For the same molecule, the EC50 in test [2] (setting [3]) was 0.012 µM.
The like results for `NC(=O)CN1CC[C@@H](CNc2ncnc(N(Cc3ccc(C(F)(F)F)nc3)C3CC3)c2F)[C@H](O)C1` (racemic) [Example A7-28, rac-2-((3R,4R)-4-(((6-(cyclopropyl((6-(trifluoromethyl)pyridin-3-yl)methyl)amino)-5-fluoropyrimidin-4-yl)amino)methyl)-3-hydroxypiperidin-1-yl)acetamide] were, in that order, 0.12 µM and 0.0205 µM.
`NC(=O)CN1CC[C@@H](CNc2ncnc(N(Cc3ccc(C(O)(C(F)(F)F)C(F)(F)F)cc3)C3CC3)c2F)[C@H](O)C1` (single isomer, unassigned) [Example A7-54-1] displayed an IC50 in test [1] (Homo sapiens, PBMC, 48 h) of 0.0098 µM. The concentration giving a half-maximal response (EC50) in test [2] (setting [3]) came out at 0.0038 µM.
`NC(=O)CN1CCC(CO)(CNc2ncnc(N(Cc3ccc(C(F)(F)F)cn3)C3CC3)c2F)CC1` [Example A7-52, 2-(4-(((6-(cyclopropyl((5-(trifluoromethyl)pyridin-2-yl)methyl)amino)-5-fluoropyrimidin-4-yl)amino)methyl)-4-(hydroxymethyl)piperidin-1-yl)acetamide] returned an IC50 in test [1] (Homo sapiens, PBMC, 48 h) of 0.13 µM. Besides, the results for the EC50 in test [2] (setting [3]) and in test [2] (setting [4]) were 0.042 µM and less than 0.1 µM, respectively.
On to `N#CC1(CNc2ncnc(N(Cc3ccc(C(F)(F)F)cc3)C3CC3)c2F)CCN(CC(N)=O)CC1` [Example A7-50, 2-(4-cyano-4-(((6-(cyclopropyl(4-(trifluoromethyl)benzyl)amino)-5-fluoropyrimidin-4-yl)amino)methyl)piperidin-1-yl)acetamide], for which the IC50 in test [1] (Homo sapiens, PBMC, 48 h) was determined as 0.04 µM. Also, in test [2] (setting [3]), the EC50 came out at 0.0081 µM.
The like results for `CC(F)(F)c1ccc(CN(c2ncnc(NC[C@@H]3CCN(CC(N)=O)C[C@H]3O)c2F)C2CC2)cc1` (racemic) [Example A7-40, rac-2-((3R,4R)-4-(((6-(cyclopropyl(4-(1,1-difluoroethyl)benzyl)amino)-5-fluoropyrimidin-4-yl)amino)methyl)-3-hydroxypiperidin-1-yl)acetamide] were, in that order, 0.0077 µM and 0.0055 µM.
In test [1] (Homo sapiens, PBMC, 48 h), `NC(=O)C(CO)N1CCC(CO)(CNc2ncnc(N(Cc3ccc(C(F)(F)F)cc3)C3CC3)c2F)CC1` (stereo not drawn) [Example A7-70, 2-(4-(((6-(cyclopropyl(4-(trifluoromethyl)benzyl)amino)-5-fluoropyrimidin-4-yl)amino)methyl)-4-(hydroxymethyl)piperidin-1-yl)-3-hydroxypropanamide] yielded an IC50 of 0.012 µM. Moreover, the EC50 in test [2] (setting [3]) stood at 0.0088 µM.
In the case of `CCN(Cc1ccc(C(F)(F)F)cc1)c1ncnc(NC[C@]2(O)CCN(CC(N)=O)C[C@H]2O)c1F` (single isomer, unassigned) [Example D5-01-1-2], the IC50 in test [1] is 0.024 µM. In test [2] (setting [3]), the EC50 came to 0.0096 µM.
In test [1] (Homo sapiens, PBMC, 48 h), `CCN(Cc1ccc(C(F)(F)F)cc1)c1ncnc(NC[C@@H]2CCN([C@H](CO)C(N)=O)C[C@H]2O)c1F` (relative stereo) [Example A7-66-1, rel-(R)-2-((3R,4R)-4-(((6-(ethyl(4-(trifluoromethyl)benzyl)amino)-5-fluoropyrimidin-4-yl)amino)methyl)-3-hydroxypiperidin-1-yl)-3-hydroxypropanamide OR rel-(R)-2-((3S,4S)-4-(((6-(ethyl(4-(trifluoromethyl)benzyl)amino)-5-fluoropyrimidin-4-yl)amino)methyl)-3-hydroxypiperidin-1-yl)-3-hydroxypropanamide] displayed an IC50 of 0.018 µM. The EC50 in test [2] (setting [3]) was determined as 0.026 µM.
`NC(=O)CN1CC[C@H](CNc2ncnc(N(Cc3ccc(C(F)(F)F)nc3)C3CC3)c2F)[C@@H](O)C1` (single isomer, unassigned) [Example A7-28-2]: inhibition in test [1] (Homo sapiens, PBMC, 48 h) was half-maximal at 0.081 µM (IC50). In test [2] (setting [4]), the EC50 was less than 0.1 µM.
The molecule `CCN(Cc1ccc(C(F)(F)F)cc1)c1ncnc(NC[C@H]2CCN(C(CO)C(N)=O)C[C@@H]2O)c1F` (relative stereo) [Example A7-66-2, rel-(R)-2-((3R,4R)-4-(((6-(ethyl(4-(trifluoromethyl)benzyl)amino)-5-fluoropyrimidin-4-yl)amino)methyl)-3-hydroxypiperidin-1-yl)-3-hydroxypropanamide OR rel-(R)-2-((3S,4S)-4-(((6-(ethyl(4-(trifluoromethyl)benzyl)amino)-5-fluoropyrimidin-4-yl)amino)methyl)-3-hydroxypiperidin-1-yl)-3-hydroxypropanamide] yielded an IC50 in test [1] of 0.21 µM. Besides, the EC50 in test [2] (setting [3]) was found to be 0.088 µM.
In test [1] (Homo sapiens, PBMC, 48 h), `NC(=O)CN1CCC(O)(CNc2ncnc(N(Cc3ccc(C(F)(F)F)cc3)C3CC3)c2F)CC1` [Example A7-10, 2-(4-(((6-(cyclopropyl(4-(trifluoromethyl)benzyl)amino)-5-fluoropyrimidin-4-yl)amino)methyl)-4-hydroxypiperidin-1-yl)acetamide] returned an IC50 of 0.017 µM. In addition, the EC50 in test [2] (setting [3]) stood at 0.0033 µM.
In turn, `NC(=O)C(c1ccncc1)N1CC[C@@H](CNc2ncnc(N(Cc3ccc(C(F)(F)F)cc3)C3CC3)c2F)[C@H](O)C1` (mixture of isomers) [Example A7-63, rac-2-((3R,4R)-4-(((6-(cyclopropyl(4-(trifluoromethyl)benzyl)amino)-5-fluoropyrimidin-4-yl)amino)methyl)-3-hydroxypiperidin-1-yl)-2-(pyridin-4-yl)acetamide] had a concentration for half-maximal inhibition (IC50) in test [1] (Homo sapiens, PBMC, 48 h) of 0.0023 µM. In addition, the EC50 in test [2] (setting [3]) was found to be 0.0034 µM.

Values taken from US12441704B2, “Compounds active towards nuclear receptors” (NUEVOLUTION A/S, priority 2019, dated 2025).
